Results published in US20060276520A1 (priority 2002, published 2006).
Where “and” joins values, the source holds several entries; their conditions need not be identical. Equal values may be shown once.

Columns and labels:
[1] = biological target: MDM2/P53 (Homo sapiens, UniProt Q00987); experiment: biochemical
[2] = biological target: APC2/APC11 (Homo sapiens, UniProt Q9NYG5+Q9UJX6); experiment: biochemical
Chain of APC2/APC11 (Q9UJX6 whole entry): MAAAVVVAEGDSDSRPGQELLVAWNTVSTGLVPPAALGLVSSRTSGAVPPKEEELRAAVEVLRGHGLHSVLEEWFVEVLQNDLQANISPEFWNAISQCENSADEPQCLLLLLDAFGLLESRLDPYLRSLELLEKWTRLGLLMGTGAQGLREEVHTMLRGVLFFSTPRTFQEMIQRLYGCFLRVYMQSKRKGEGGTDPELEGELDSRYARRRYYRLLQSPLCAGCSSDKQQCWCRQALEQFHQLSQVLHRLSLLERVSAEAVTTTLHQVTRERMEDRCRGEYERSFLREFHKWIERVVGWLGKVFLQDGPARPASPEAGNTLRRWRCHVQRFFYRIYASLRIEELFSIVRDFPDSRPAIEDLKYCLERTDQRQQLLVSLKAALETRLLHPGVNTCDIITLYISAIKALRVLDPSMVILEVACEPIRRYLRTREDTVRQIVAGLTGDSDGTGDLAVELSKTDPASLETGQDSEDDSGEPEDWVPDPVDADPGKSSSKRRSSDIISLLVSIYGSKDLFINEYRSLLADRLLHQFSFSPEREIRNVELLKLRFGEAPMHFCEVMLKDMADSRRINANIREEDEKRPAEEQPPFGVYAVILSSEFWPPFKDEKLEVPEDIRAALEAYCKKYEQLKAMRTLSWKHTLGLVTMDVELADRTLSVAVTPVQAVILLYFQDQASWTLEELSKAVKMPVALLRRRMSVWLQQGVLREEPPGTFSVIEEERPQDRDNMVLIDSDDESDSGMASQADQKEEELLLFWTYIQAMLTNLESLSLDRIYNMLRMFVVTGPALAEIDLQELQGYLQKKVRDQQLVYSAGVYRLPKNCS
Chain of APC2/APC11 (Q9NYG5 whole entry): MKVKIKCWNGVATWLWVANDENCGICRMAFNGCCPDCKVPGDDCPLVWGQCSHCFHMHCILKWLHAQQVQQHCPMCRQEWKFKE

Chain of MDM2/P53 (Q00987 whole entry): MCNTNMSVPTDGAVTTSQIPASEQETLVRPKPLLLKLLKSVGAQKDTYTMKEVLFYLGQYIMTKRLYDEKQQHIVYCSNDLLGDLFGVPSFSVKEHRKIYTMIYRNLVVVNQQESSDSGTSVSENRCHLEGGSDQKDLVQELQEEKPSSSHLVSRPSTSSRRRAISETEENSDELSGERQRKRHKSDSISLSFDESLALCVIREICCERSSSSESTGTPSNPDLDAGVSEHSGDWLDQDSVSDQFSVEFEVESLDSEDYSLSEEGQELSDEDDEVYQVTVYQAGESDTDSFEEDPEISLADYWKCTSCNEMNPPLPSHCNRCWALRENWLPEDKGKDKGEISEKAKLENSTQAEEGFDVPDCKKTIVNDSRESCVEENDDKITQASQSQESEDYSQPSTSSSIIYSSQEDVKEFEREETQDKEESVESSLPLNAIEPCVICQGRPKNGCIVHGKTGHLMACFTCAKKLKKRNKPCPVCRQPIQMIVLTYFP

Structure (SMILES)	IC50 [1] [nM]	IC50 [2]
O=C1/C(=C/c2ccc(-c3ccccc3Cl)o2)SC(=S)N1Cc1ccc2c(c1)OCO2 [Compound 299, (5Z)-3-(1,3-benzodioxol-5-ylmethyl)-5-{[5-(2-chlorophenyl)-2-furyl]methylene}-2-thioxo-1,3-thiazolidin-4-one]	450	–
O=C1/C(=C/c2ccc(-c3ccc([N+](=O)[O-])cc3)o2)SC(=S)N1Cc1ccccc1 [Compound 199, (5Z)-3-benzyl-5-{[5-(4-nitrophenyl)-2-furyl]methylene}-2-thioxo-1,3-thiazolidin-4-one]	–	100 nM
NS(=O)(=O)c1ccc(-c2ccc(/C=C3\SC(=S)N(CCc4ccccc4)C3=O)o2)cc1 [Compound 103, 4-(5-{(Z)-[4-oxo-3-(2-phenylethyl)-2-thioxo-1,3-thiazolidin-5-ylidene]methyl}-2-furyl)benzenesulfonamide]	3870	–
O=C1NC(=S)S/C1=C/c1ccc(-c2cc(Cl)ccc2Cl)o1 [Compound 270, (5E)-5-{[5-(2,5-dichlorophenyl)-2-furyl]methylene}-2-thioxo-1,3-thiazolidin-4-one]	–	3000 nM
CN1C(=O)/C(=C/c2ccc(-c3cccc4ccccc34)o2)SC1=S [Compound 33, (5Z)-3-methyl-5-{[5-(1-naphtthyl)-2-furyl]methylene}-2-thioxo-1,3-thiazolidin-4-one]	6100	–
O=C(O)CN1C(=O)/C(=C\c2ccc(-c3cccc(C(F)(F)F)c3)o2)SC1=S [Compound 146, [(5E)-4-oxo-2-thioxo-5-({5-[3-(trifluoromethyl)phenyl]-2-furyl]methylene)-1,3-thiazolidin-3-yl]acetic acid]	–	10000 nM
Cc1c(N2C(=O)/C(=C\c3ccc(-c4ccc(Br)cc4)o3)SC2=S)c(=O)n(-c2ccccc2)n1C [Compound 51, (5E)-5-{[5-(4-bromophenyl)-2-furyl]methylene}-3-(1,5-dimethyl-3-oxo-2-phenyl-2,3-dihydro-1H-pyrazol-4-yl)-2-thioxo-1,3-thiazolidin-4-one]	9240	12100 nM
O=C1/C(=C/c2ccc(-c3ccccc3Cl)o2)SC(=S)N1CCc1ccccn1 [Compound 278, (5Z)-5-{[5-(2-chlorophenyl)-2-furyl]methylene}-3-(2-pyridin-2-ylethyl)-2-thioxo-1,3-thiazolidin-4-one]	5210	–
COc1ccc(CN2C(=O)/C(=C/c3ccc(-c4ccccc4Cl)o3)SC2=S)cc1 [Compound 274, (5Z)-5-{[5-(2-chlorophenyl)-2-furyl]methylene}-3-(4-methoxybenzyl)-2-thioxo-11,3-thiazolidin-4-one]	1180	110 nM
O=C1/C(=C/c2ccc(-c3cccc4ccccc34)o2)SC(=S)N1Cc1ccccc1 [Compound 30, (5Z)-3-benzyl-5-{[5-(1-nephthyl)-2-furyl]methylene}-2-thioxo-1,3-thiazolidin-4-one]	2320	5490 nM
O=C(O)CN1C(=O)/C(=C\c2ccc(-c3ccc(Cl)cc3)o2)SC1=S [Compound 145, ((5E)-5-{[5-(4-chlorophenyl)-2-furyl]methylene}-4-oxo-2-thioxo-1,3-thiazolidin-3-yl)acetic acid]	–	10000 nM
O=C(O)CCN1C(=O)/C(=C/c2ccc(-c3ccc(Cl)cc3Cl)o2)SC1=S [Compound 77, 3-((5Z)-5-{[5-(2,4-dichlorophenyl)-2-furyl]methylene}-4-oxo-2-thioxo-1,3-thiazolidin-3-yl)propanoic acid]	810	–
C[C@H](NC(=O)CN1C(=O)/C(=C/c2ccc(-c3ccccc3Cl)o2)SC1=S)C(=O)OC(C)(C)C [Compound 302, tert-butyl N-[((5Z)-5-{[5-(2-chlorophenyl)-2-furyl]methylene}-4-oxo-2-thioxo-1,3-thiazolidin-3-yl)acetyl]alaninate]	4600	–
CN1C(=O)/C(=C\c2ccc(-c3cccc(Br)c3)o2)SC1=S [Compound 50, (5E)-5-{[5-(3-bromophenyl)-2-furyl]methylene]-3-methyl-2-thioxo-1,3-thiazolidin-4-one]	2690	3700 nM
O=C(O)CCN1C(=O)/C(=C\c2ccc(-c3ccc(Cl)c(Cl)c3)o2)SC1=S [Compound 256, 3-((5E)-5-{[5-(3,4-dichlorophenyl)-2-furyl]methylene}-4-oxo-2-thioxo-1,3-thiazolidin-3-yl)propanoic acid]	530	–
O=C1/C(=C/c2ccc(-c3ccccc3Cl)o2)SC(=S)N1CCc1cccs1 [Compound 275, (5Z)-5-{[5-(2-chlorophenyl)-2-furyl]methylene}-3-[2-(2-thienyl)ethyl]-2-thioxo-1,3-thiazolidin-4-one]	1160	320 nM
O=C(O)CCN1C(=O)/C(=C/c2ccc(-c3ccc(Br)cc3)o2)SC1=S [Compound 25, 3-((5Z)-5-{[5-(4-bromophenyl)-2-furyl]methylene}-4-oxo-2-thioxo-1,3-thiazolidin-3-yl)propanoic acid]	5640	2060 nM
O=C1NC(=S)S/C1=C/c1ccc(-c2ccc(Cl)cc2)o1 [Compound 238, (5E)-5-{[5-(4-chlorophenyl)-2-furyl]methylene}-2-thioxo-1,3-thiazolidin-4-one]	–	5000 nM

Structure (SMILES)	IC50 [1] [nM]	IC50 [2]
CN1C(=O)/C(=C/c2ccc(-c3ccc(S(N)(=O)=O)cc3)o2)SC1=S [Compound 23, 4-{5-[(Z)-(3-methyl-4-oxo-2-thioxo-1,3-thiazolidin-5-ylidene)methyl]-2-furyl}benzenezulffonamide]	7940	5150 nM
O=C(O)c1cccc(-c2ccc(/C=C3/SC(=S)N(c4cccc(Cl)c4)C3=O)o2)c1 [Compound 46, 3-(5-{(E)-[3-(3-chlorophenyl)-4-oxo-2-thioxo-1,3-thiazolidin-5-ylidene]methyl}-2-furyl)benzoic acid]	4920	910 nM
O=C1C(Cc2ccc(-c3ccccc3Cl)o2)SC(=S)N1Cc1ccc2c(c1)OCO2 (stereo not drawn) [Compound 305, 3-(1,3-benzodioxol-5-ylmethyl)-5-{[5-(2-chlorophenyl)-2-furyl]methyl}-2-thioxo-1,3-thiazolidin-4-one]	10800	–
O=C1/C(=C\c2ccc(-c3ccc(Cl)cc3)o2)SC(=S)N1C1CCS(=O)(=O)C1 (stereo not drawn) [Compound 40, (5E)-5-{[5-(4-chlorophenyl)-2-furyl]methylene}-3-(1,1-dioxidotetrahydro-3-thienyl)-2-thioxo-1,3-thiazolidin-4-one]	5520	–
CN1C(=O)/C(=C\c2ccc(-c3ccc(Cl)cc3)o2)SC1=S [Compound 29, (5E)-5-{[5-(4-chlorophenyl)-2-furyl]methylene}-3-methyl-2-thioxo-1,3-thiazolidin-4-one]	1210	1440 nM
CCOc1ccc(N2C(=O)/C(=C\c3ccc(-c4ccc(Br)cc4)o3)SC2=S)cc1 [Compound 69, (5E)-5-{[5-(4-bromophenyl)-2-furyl]mthylene}-3-(4-ethoxyphenyl)-2-thioxo-1,3-thiazolidin-4-one]	14200	–
C=CCN1C(=O)/C(=C\c2ccc(-c3cccc(C(F)(F)F)c3)o2)SC1=S [Compound 63, (5E)-3-allyl-2-thioxo-5-({5-[3-(trifluoromethyl)phenyl]-2-furyl}methylene)-1,3-thiazolidin-4-one]	–	200 nM
O=C(O)c1cccc(-c2ccc(/C=C3\SC(=S)N(C4CCCCC4)C3=O)o2)c1 [Compound 176, 3-{5-[(Z)-(3-cyclohexyl-4-oxo-2-thioxo-1,3-thiazolidin-5-ylidene)methyl]-2-furyl}benzoic acid]	–	400 nM and 700 nM
O=C1/C(=C/c2ccc(-c3ccccc3)o2)SC(=S)N1c1ccccc1 [Compound 28, (5Z)-3-phenyl-5-[(5-phenyl-2-furyl)methylene]-2-thioxo-1,3-thiazolidin-4-one]	800	–
CC(C)(C)OC(=O)[C@H](Cc1ccccc1)NC(=O)CN1C(=O)/C(=C/c2ccc(-c3ccccc3Cl)o2)SC1=S [Compound 301, tert-butyl N-[((5Z)-5-{[5-(2-chlorophenyl)-2-furyl]methylene}-4-oxo-2-thioxo-1,3-thiazolidin-3-yl)acetyl]phenylalaninate]	930	410 nM
O=C1/C(=C\c2ccc(-c3ccc([N+](=O)[O-])cc3)o2)SC(=S)N1CCc1ccccc1 [Compound 75, (5E)-5-{[5-(4-nitrophenyl)-2-furyl]methylene}-3-(2-phenylethyl)-2-thioxo-1,3-thiazolidin-4-one]	13600	–
O=C1/C(=C/c2ccc(-c3ccc(Br)cc3)o2)SC(=S)N1c1ccccc1 [Compound 27, (5Z)-5-{[5-(4-bromophenyl)-2-furyl]methylene}-3-phenyl-2-thioxo-1,3-thiazolidin-4-one]	10700	–
O=C(O)CN1C(=O)/C(=C\c2ccc(-c3ccc(Cl)c(Cl)c3)o2)SC1=S [Compound 82, ((5E)-5-{[5-(3,4-dichlorophenyl)-2-furyl]methylene}-4-oxo-2-thioxo-1,3-thiazolidin-3-yl)acetic acid]	1500	5000 nM
O=C1/C(=C\c2ccc(-c3cccc([N+](=O)[O-])c3)o2)SC(=S)N1Cc1ccccc1 [Compound 98, (5E)-3-benzyl-5-{[5-(3-nitrophenyl)-2-furyl]methylene}-2-thioxo-1,3-thiazolidin-4-one]	11600	–
CN1C(=O)/C(=C\c2ccc(-c3cccc([N+](=O)[O-])c3)o2)SC1=S [Compound 183, (5E)-3-methyl-5-{[5-(3-nitrophenyl)-2-furyl]methylene}-2-thioxo-1,3-thiazolidin-4-one]	–	100 nM
O=C1/C(=C/c2ccc(-c3cccc([N+](=O)[O-])c3)o2)SC(=S)N1CC1CCCO1 (stereo not drawn) [Compound 254, (5Z)-5-{[5-(3-nitrophenyl)-2-furyl]methylene}-3-(tetrahydrofuran-2-ylmethyl)-2-thioxo-1,3-thiazolidin-4-one]	24800	–
O=C1/C(=C/c2ccc(-c3ccccc3Cl)o2)SC(=S)N1Cc1ccco1 [Compound 280, (5Z)-5-{[5-(2-chlorophenyl)-2-furyl]methylene}-3-(2-furylmethyl)-2-thioxo-1,3-thiazolidin-4-one]	250	560 nM
O=C1/C(=C\c2ccc(-c3ccccc3Cl)o2)SC(=S)N1C1CCS(=O)(=O)C1 (stereo not drawn) [Compound 99, (5E)-5-{[5-(2-chlorophenyl)-2-furyl]methylene}-3-(1,1-dioxidotetrahydro-3-thienyl)-2-thioxo-1,3-thiazolidin-4-one]	210	–
